# Measured values: patent US4720543A, “1a-7-substituted derivatives of mitomycin and uses thereof” (priority 1985, dated 1988)
# “Also recorded” adds a separate entry of the source.
# Experiments:
# [1] = tested on: peripheral leukocyte (WBC); experiment: effects on peripheral leukocyte (WBC) count; type: in vivo, mice; details: LD10-range dose i.p., days 3, 4, 5, 6 and 10
# Procedure: Comparative studies were performed with M-TAG and mitomycin C. Drug was dissolved in absolute ethanol, and then adjusted to a final concentration of 8% ethanol-92% sterile water. Blood samples obtained were diluted in 9.98 ml of Isoton (a neutral isotonic buffer solution) and counted in a Coulter counter after lysis with Zapoglobin (an enzyme solution which lyses red blood cells but not white blood cells). WBC counts are expressed as a percentage of values from control mice receiving drug vehicle only.
# [2] = tested on: human bone marrow cells; experiment: human bone marrow CFU-C assay
# Procedure: (§2) The human bone marrow CFU-C assay measures human bone marrow cells committed to granulocyte-macrophage differentiation. This in vitro assay serves as a model for predicting the relative toxicity of an experimental drug on the granulocytic series of the bone marrow. […] Both drugs were dissolved in 0.5% DMSO, and nucleated human bone marrow cells were exposed in vitro (for 90 minutes at 37° C.) to varying concentrations of each drug. The cells were then plated in triplicate in 3% agar for the CFU-C assay, using GCT, (Giant Cell Tumor) extract (Gibco, Grand Island, N.Y.) as colony-stimulating factor.
# [3] = human bone marrow CFU-C assay; details: human, bone marrow cells
# Procedure: as §2
# [4] = tested on: W3100 (E. coli); experiment: antibiotic activity, bacterial growth inhibition in culture; type: cell-based
# Procedure: (§1) Bacteria were grown in a standard growth culture at pH 7.2. After the cultures were incubated at 37° C. overnight and diluted into fresh medium, controls and the test antibiotics dissolved in 0.3% hydroxy propylcellulose (HPC) were added at various concentrations and then reincubated overnight. The measure of antibiotic activity was determined by the amount of bacterial growth inhibition as shown by measurement of the optical density at 660 nm.
# [5] = tested on: Staphylococcus Sp.; experiment: as above; type: cell-based
# Procedure: as §1
# [6] = tested on: Listeria Sp.; experiment: as above; type: cell-based
# Procedure: as §1
# [7] = tested on: WP2s (E. coli); experiment: as above; type: cell-based
# Procedure: as §1
# [8] = tested on: TA100 (Salmonella Sp.); experiment: as above; type: cell-based
# Procedure: as §1
# [9] = Escherichia coli, 0.04 mcg/ml, 37° C. overnight, read-out: amount of bacterial growth inhibition (first figure)
# [10] = Escherichia coli, 0.4 mcg/ml, 37° C. overnight, read-out: amount of bacterial growth inhibition (first figure)
# [11] = Escherichia coli, 4.0 mcg/ml, 37° C. overnight, read-out: amount of bacterial growth inhibition (first figure)
# [12] = Escherichia coli, 40 mcg/ml, 37° C. overnight, read-out: amount of bacterial growth inhibition (first figure)
# [13] = Escherichia coli, 400 mcg/ml, 37° C. overnight, read-out: amount of bacterial growth inhibition (first figure)
structure (smiles),measurement,setting,value
"CO[C@@]12[C@H](COC(N)=O)C3=C(C(=O)C(C)=C(N)C3=O)N1C[C@H]1[C@@H]2N1C(=S)N[C@@H]1O[C@H](COC(C)=O)[C@@H](OC(C)=O)[C@H](OC(C)=O)[C@H]1NC(C)=O [M-TAG, 1a(N-2-acetamido-3,4,6-tri-O-acetyl-2-deoxy-D-glucopyranosylthiocarbamoyl)-mitomycin C]",WBC depression / myelotoxicity (in words),[1],no significant depression in WBC counts at all days tested; also recorded: no significant myelotoxicity as measured by WBC depression
same,bone marrow toxicity compared to parent mitomycin-C (in words),[2],reduced bone marrow toxicity
same,"activity at 1.5 h, 100 µM",[3],66%
same,"activity at 1.5 h, 500 µM",[3],43%
same,"activity at 1.5 h, 1000 µM",[3],< 20%
same,optical density at 660 nm (figure in parentheses),[4]; 0.04 mcg/ml,0.48
same,optical density at 660 nm (figure in parentheses),[4]; 0.4 mcg/ml,0.51
same,optical density at 660 nm (figure in parentheses),[4]; 4.0 mcg/ml,0.30
same,optical density at 660 nm (figure in parentheses),[4]; 40 mcg/ml,0.07
same,optical density at 660 nm (figure in parentheses),[4]; 400 mcg/ml,0.04
same,inhibition at 0.04 µg/mL,[4]; [9],33%
same,inhibition at 0.4 µg/mL,[4]; [10],31%
same,inhibition at 4 µg/mL,[4]; [11],50%
same,inhibition at 40 µg/mL,[4]; [12],86%
same,inhibition at 400 µg/mL,[4]; [13],92%
same,optical density at 660 nm (figure in parentheses),[5]; 0.04 mcg/ml,0.52
same,optical density at 660 nm (figure in parentheses),[5]; 0.4 mcg/ml,0.02
same,optical density at 660 nm (figure in parentheses),[5]; 4.0 mcg/ml,0.018
same,optical density at 660 nm (figure in parentheses),[5]; 40 mcg/ml,0.03
same,optical density at 660 nm (figure in parentheses),[5]; 400 mcg/ml,0.00
same,inhibition at 0.04 µg/mL,"[5]; Staphylococcus, 0.04 mcg/ml, 37° C. overnight, read-out: amount of bacterial growth inhibition (first figure)",30%
same,inhibition at 0.4 µg/mL,"[5]; Staphylococcus, 0.4 mcg/ml, 37° C. overnight, read-out: amount of bacterial growth inhibition (first figure)",95%
same,inhibition at 4 µg/mL,"[5]; Staphylococcus, 4.0 mcg/ml, 37° C. overnight, read-out: amount of bacterial growth inhibition (first figure)",96%
same,inhibition at 40 µg/mL,"[5]; Staphylococcus, 40 mcg/ml, 37° C. overnight, read-out: amount of bacterial growth inhibition (first figure)",94%
same,inhibition at 400 µg/mL,"[5]; Staphylococcus, 400 mcg/ml, 37° C. overnight, read-out: amount of bacterial growth inhibition (first figure)",100%
same,optical density at 660 nm (figure in parentheses),[6]; 0.04 mcg/ml,0.59
same,optical density at 660 nm (figure in parentheses),[6]; 0.4 mcg/ml,0.59
same,optical density at 660 nm (figure in parentheses),[6]; 4.0 mcg/ml,0.59
same,optical density at 660 nm (figure in parentheses),[6]; 40 mcg/ml,0.036
same,optical density at 660 nm (figure in parentheses),[6]; 400 mcg/ml,0.00
same,inhibition at 0.04 µg/mL,"[6]; Listeria, 0.04 mcg/ml, 37° C. overnight, read-out: amount of bacterial growth inhibition (first figure)",26%
same,inhibition at 0.4 µg/mL,"[6]; Listeria, 0.4 mcg/ml, 37° C. overnight, read-out: amount of bacterial growth inhibition (first figure)",26%
same,inhibition at 4 µg/mL,"[6]; Listeria, 4.0 mcg/ml, 37° C. overnight, read-out: amount of bacterial growth inhibition (first figure)",26%
same,inhibition at 40 µg/mL,"[6]; Listeria, 40 mcg/ml, 37° C. overnight, read-out: amount of bacterial growth inhibition (first figure)",92%
same,inhibition at 400 µg/mL,"[6]; Listeria, 400 mcg/ml, 37° C. overnight, read-out: amount of bacterial growth inhibition (first figure)",100%
same,optical density at 660 nm (figure in parentheses),[7]; 0.04 mcg/ml,0.41
same,optical density at 660 nm (figure in parentheses),[7]; 0.4 mcg/ml,0.29
same,optical density at 660 nm (figure in parentheses),[7]; 4.0 mcg/ml,0.30
same,optical density at 660 nm (figure in parentheses),[7]; 40 mcg/ml,0.12
same,optical density at 660 nm (figure in parentheses),[7]; 400 mcg/ml,0.009
same,inhibition at 0.04 µg/mL,[7]; [9],39%
same,inhibition at 0.4 µg/mL,[7]; [10],51%
same,inhibition at 4 µg/mL,[7]; [11],50%
same,inhibition at 40 µg/mL,[7]; [12],76%
same,inhibition at 400 µg/mL,[7]; [13],98%
same,optical density at 660 nm (figure in parentheses),[8]; 0.04 mcg/ml,0.34
same,optical density at 660 nm (figure in parentheses),[8]; 0.4 mcg/ml,0.11
same,optical density at 660 nm (figure in parentheses),[8]; 4.0 mcg/ml,0.97
same,optical density at 660 nm (figure in parentheses),[8]; 40 mcg/ml,0.97
same,optical density at 660 nm (figure in parentheses),[8]; 400 mcg/ml,0.02
same,inhibition at 0.04 µg/mL,"[8]; Salmonella, 0.04 mcg/ml, 37° C. overnight, read-out: amount of bacterial growth inhibition (first figure)",46%
